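1) Cells in 96-well plates. 2) Compound, 48 h, 5 concentrations. 3) Linear interpolation between surrounding doses. 4) Unreached endpoint = highest concentration. GI50 marks 50% less growth.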 The source made the active and inactive calls. Rule as the data show it: active = GI50 up to about 1.1 µM and inactive = higher.
What was measured:
Assay in all cases: DTP human tumour cell line panel, 48 h
TK-10 = system: TK-10
SW-620 = system: SW-620
UACC-257 = system: UACC-257
SF-539 = system: SF-539
XF498 = system: XF498
CCRF-CEM = system: CCRF-CEM
HOP-62 = system: HOP-62
NCI-H226 = system: NCI-H226
HL-60 = system: HL-60
SK-OV-3 = system: SK-OV-3
OVCAR-4 = system: OVCAR-4
SK-MEL-28 = system: SK-MEL-28
LXFL 529 = system: LXFL 529
HCT-116 = system: HCT-116
A549 = system: A549
SNB-19 = system: SNB-19
ACHN = system: ACHN
EKVX = system: EKVX
MOLT-4 = system: MOLT-4
HT-29 = system: HT-29
U-251 = system: U-251
SF-295 = system: SF-295
DMS-273 = system: DMS-273
M14 = system: M14
NCI-H460 = system: NCI-H460
HOP-92 = system: HOP-92
SNB-78 = system: SNB-78
OVCAR-5 = system: OVCAR-5
KM12 = system: KM12
A498 = system: A498
CAKI-1 = system: CAKI-1
HCC 2998 = system: HCC 2998
NCI-H23 = system: NCI-H23
786-0 = system: 786-0
SR = system: SR
RPMI-8226 = system: RPMI-8226
KM-20L2 = system: KM-20L2
K562 = system: K562
IGROV-1 = system: IGROV-1
SK-MEL-5 = system: SK-MEL-5
DLD-1 = system: DLD-1
LOX IMVI = system: LOX IMVI
UACC-62 = system: UACC-62
SK-MEL-2 = system: SK-MEL-2
NCI-H522 = system: NCI-H522
COLO 205 = system: COLO 205
OVCAR-8 = system: OVCAR-8
SN12C = system: SN12C
HCT-15 = system: HCT-15
DMS-114 = system: DMS-114
HOP-18 = system: HOP-18
SNB-75 = system: SNB-75
SF-268 = system: SF-268
OVCAR-3 = system: OVCAR-3
Malme-3M = system: Malme-3M
RXF 393 = system: RXF 393
UO-31 = system: UO-31
M19-MEL = system: M19-MEL

Measured: GI50

CN(CCN(C)C(=O)CCOS(C)(=O)=O)C(=O)CCOS(C)(=O)=O
inactive: TK-10 > 100 µM | SW-620 > 100 µM | UACC-257 > 100 µM | SF-539 44.1 µM | XF498 > 100 µM | CCRF-CEM 24.3 µM | HOP-62 59 µM | NCI-H226 > 100 µM | HL-60 30.9 µM | SK-OV-3 > 100 µM | OVCAR-4 > 100 µM | SK-MEL-28 > 100 µM | LXFL 529 > 100 µM | HCT-116 > 100 µM | A549 > 100 µM | SNB-19 > 100 µM | ACHN > 100 µM | EKVX > 100 µM | MOLT-4 41 µM | HT-29 > 100 µM | U-251 > 100 µM | SF-295 > 100 µM | DMS-273 74 µM | M14 > 100 µM | NCI-H460 19.5 µM | HOP-92 > 100 µM | SNB-78 > 100 µM | OVCAR-5 > 100 µM | KM12 > 100 µM | A498 > 100 µM | CAKI-1 > 100 µM | HCC 2998 > 100 µM | NCI-H23 > 100 µM | 786-0 > 100 µM | SR 15.6 µM | RPMI-8226 > 100 µM | KM-20L2 > 100 µM | K562 > 100 µM | IGROV-1 > 100 µM | SK-MEL-5 > 100 µM | DLD-1 > 100 µM | LOX IMVI > 100 µM | UACC-62 43.5 µM | SK-MEL-2 > 100 µM | NCI-H522 > 100 µM | COLO 205 > 100 µM | OVCAR-8 > 100 µM | SN12C > 100 µM | DMS-114 > 100 µM | HOP-18 > 100 µM | SNB-75 > 100 µM | SF-268 77.8 µM | OVCAR-3 > 100 µM | Malme-3M > 100 µM
> 100 µM: HCT-15

CC(=O)Nc1ccc(OCC(O)CO)cc1 (stereo not given)
29.5 µM: HCT-15
inactive: TK-10 > 100 µM | SW-620 8.3 µM | UACC-257 > 100 µM | SF-539 > 100 µM | RXF 393 > 100 µM | XF498 > 100 µM | CCRF-CEM 48.2 µM | HOP-62 > 100 µM | NCI-H226 > 100 µM | SK-OV-3 > 100 µM | OVCAR-4 > 100 µM | SK-MEL-28 > 100 µM | LXFL 529 52.8 µM | HCT-116 > 100 µM | A549 > 100 µM | SNB-19 > 100 µM | ACHN > 100 µM | EKVX > 100 µM | UO-31 > 100 µM | MOLT-4 > 100 µM | HT-29 > 100 µM | U-251 56.5 µM | SF-295 > 100 µM | DMS-273 > 100 µM | M14 > 100 µM | NCI-H460 > 100 µM | HOP-92 > 100 µM | SNB-78 > 100 µM | OVCAR-5 > 100 µM | M19-MEL > 100 µM | KM12 > 100 µM | A498 > 100 µM | CAKI-1 > 100 µM | HCC 2998 > 100 µM | NCI-H23 > 100 µM | 786-0 25.1 µM | SR > 100 µM | RPMI-8226 21.2 µM | KM-20L2 > 100 µM | K562 16.8 µM | IGROV-1 > 100 µM | SK-MEL-5 > 100 µM | DLD-1 23.2 µM | LOX IMVI 25.5 µM | UACC-62 > 100 µM | SK-MEL-2 > 100 µM | NCI-H522 > 100 µM | COLO 205 > 100 µM | OVCAR-8 > 100 µM | SN12C > 100 µM | HOP-18 > 100 µM | SNB-75 > 100 µM | SF-268 > 100 µM | OVCAR-3 > 100 µM | Malme-3M > 100 µM

O=C1NC2(CCCCC2)C2=C1CCCCC2
inactive: TK-10 > 100 µM | SW-620 > 100 µM | UACC-257 > 100 µM | SF-539 > 100 µM | RXF 393 > 100 µM | XF498 > 100 µM | CCRF-CEM > 100 µM | HOP-62 > 100 µM | HL-60 > 100 µM | SK-OV-3 > 100 µM | OVCAR-4 > 100 µM | SK-MEL-28 > 100 µM | LXFL 529 > 100 µM | HCT-116 > 100 µM | A549 > 100 µM | SNB-19 > 100 µM | ACHN > 100 µM | EKVX > 100 µM | UO-31 > 100 µM | MOLT-4 > 100 µM | HT-29 > 100 µM | U-251 > 100 µM | SF-295 > 100 µM | DMS-273 > 100 µM | M14 > 100 µM | NCI-H460 > 100 µM | HOP-92 > 100 µM | SNB-78 > 100 µM | OVCAR-5 > 100 µM | M19-MEL > 100 µM | KM12 > 100 µM | A498 > 100 µM | CAKI-1 > 100 µM | NCI-H23 > 100 µM | 786-0 > 100 µM | SR > 100 µM | K562 > 100 µM | IGROV-1 > 100 µM | SK-MEL-5 > 100 µM | DLD-1 > 100 µM | LOX IMVI > 100 µM | UACC-62 > 100 µM | SK-MEL-2 > 100 µM | NCI-H522 > 100 µM | COLO 205 > 100 µM | OVCAR-8 > 100 µM | SN12C > 100 µM | DMS-114 > 100 µM | HOP-18 > 100 µM | SNB-75 > 100 µM | SF-268 > 100 µM | OVCAR-3 > 100 µM | Malme-3M > 100 µM
> 100 µM: HCT-15
